Reference: PMC6214143, “Oncotoxic Properties of Serotonin Transporter Inhibitors and 5-HT1A Receptor Ligands” (International Journal of Molecular Sciences, 2018)
Counter-ions that a name gives are not always drawn.

Legend:
5-HT1A receptor [1] = molecular target: T1, 5-HT1A receptor (Homo sapiens, UniProt P08908); assay: ERK1/2 phosphorylation (HTRF) in HEK293 cells that overexpress the 5-HT1AR gene; type: cell-based; conditions: for EC50: agonist mode, HEK293-5-HT1A cells, read-out: ERK1/2 EC50
T1 construct: EGFP; expressed in transfected cells
T1 sequence (P08908 1-422): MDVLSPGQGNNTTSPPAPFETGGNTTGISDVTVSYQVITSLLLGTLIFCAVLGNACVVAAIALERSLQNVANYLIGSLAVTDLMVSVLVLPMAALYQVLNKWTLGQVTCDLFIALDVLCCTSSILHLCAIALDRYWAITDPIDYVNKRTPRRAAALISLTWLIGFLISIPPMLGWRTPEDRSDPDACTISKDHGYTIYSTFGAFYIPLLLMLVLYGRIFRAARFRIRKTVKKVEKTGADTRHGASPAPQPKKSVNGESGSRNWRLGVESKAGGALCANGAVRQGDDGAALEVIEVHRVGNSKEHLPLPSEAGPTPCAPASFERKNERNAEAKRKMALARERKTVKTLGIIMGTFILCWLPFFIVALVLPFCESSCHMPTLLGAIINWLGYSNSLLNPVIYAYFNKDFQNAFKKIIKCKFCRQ
Method: (§1) The examination of the functional activity read out as cAMP level inhibition and ERK1/2 and Akt1 phosphorylation was performed according to the instructions of the One-plate Cisbio Bioassays cAMP dynamic 2, phospho-ERK (Thr202/Tyr204) and Akt1 phospho- S473 Cellular Assay Kits respectively, using a HEK293 human fibroblast cell line that overexpresses 5-HT1A receptors. […] The cAMP levels in PC-3 cells were determined using 600,000 cells/mL. Receptor activation with the appropriate ligands was carried out for 30 min, and then the cells were lysed. The results were analyzed with GraphPad Prism v 6.0 (GraphPad Software, San Diego, CA, USA) using its in-built functions. Ligand activity was determined using a 4-parameter equation of the dose-response function. […] M.
(§2) All compounds were tested with both agonists and antagonists. To test the response of cAMP to an agonist the cells were activated with forskolin (1 µM) followed by agonist addition. […] Data are an average of minimum three independent experiments in duplicate. The control of specific activity was measured under the same conditions on cells lacking the 5-HT1A receptor. The results were expressed as % of the reference agonist activity. In the antagonist mode 100% of the reference agonist activity (EC80) corresponded to 0% antagonist activity.

Balb/c 3T3 cells = assay: MTT cell survival assay, Balb/c 3T3 cells (normal reference); type: cell-based, murine; conditions: Mus musculus, BALB/c3T3, 72 h
Method: (§3) The effects of the test compounds on the survival of PC-3, SH-SY5Y, Balb/c 3T3 and HEK293 cells was measured with the aid of the 3-(4,5-dimethylthiazol-2-yl)-2,5-diphenyltetrazolium bromide (MTT) assay. The cells were cultured in 96-well plates (100 μL/well) for 72 h. The optimized initial densities were the following: for PC-3—60,000 cells/mL, SH-SY5Y and Balb/c 3T3—50,000 cells/mL.
(§4) After 20 h preincubation and evaluation of the uniformity of cell growth, the medium was aspirated, and the respective solutions of the substances were added to the culture medium. Control cells were only treated the solvent used for the compounds and medium alone.
(§5) MTT (3-(4,5-dimethylthiazol-2-yl)-2,5-diphenyltetrazolium bromide) is reduced by intracellular dehydrogenase, which is present only in live cells (mitochondria), to purple, water-insoluble formazan. After it is dissolved, formazan absorbance of the resulting solution is directly proportional to the number of living cells in culture.
After appropriate incubation, the culture medium was removed. Next, 50 μL of MTT solution (0.5 mg/mL) diluted in PBS to 0.5 mg/mL was added to each well. The plates were incubated for 3 h at 37 °C. Then, the precipitated formazan was dissolved by the addition of 200 μL isopropanol. After a 24-hour incubation at 4 °C in the dark, the absorbance of the dissolved formazan was measured at 570 nm (the maximum absorption of formazan) and at 690 nm (reference wavelength) using a Power Wave XS microplate spectrophotometer (Bio-Tek, Winooski, VT, USA). The plates were sealed to reduce evaporation before incubation. The test was performed in three to five independent experiments with four times the measured concentration tested. The cell survival percentage was determined as % of controls, which were cells treated with the test compound solvent at the highest concentration.

PC-3 cells = assay: MTT cell survival assay, PC-3 cells; type: cell-based, human; conditions: for IC50: Homo sapiens, PC-3 cells, MTT, 72 h; for Selectivity Index: IC50 Balb/c 3T3 / IC50 PC-3
Method: as §3, §4, §5
(§6) After appropriate incubation, the culture medium was removed. Next, 50 μL of MTT solution (0.5 mg/mL) diluted in PBS to 0.5 mg/mL was added to each well. […] Then, the precipitated formazan was dissolved by the addition of 200 μL isopropanol. […] The plates were sealed to reduce evaporation before incubation. The test was performed in three to five independent experiments with four times the measured concentration tested. The cell survival percentage was determined as % of controls, which were cells treated with the test compound solvent at the highest concentration.

SH-SY5Y cells = assay: MTT cell survival assay, SH-SY5Y cells; type: cell-based, human; conditions: for IC50: Homo sapiens, SH-SY5Y cells, MTT, 72 h; for Selectivity Index: IC50 Balb/c 3T3 / IC50 SH-SY5Y
Method: as §3, §4, §5, §6

5-HT1A receptor [2] = molecular target: T1, 5-HT1A receptor; assay: cAMP level (HTRF) in HEK293 cells that overexpress the 5-HT1AR gene; type: cell-based
Method: as §1, §2

[3] = molecular target: T2, serotonin transporter (SERT) (Rattus norvegicus, UniProt P31652); assay: In vitro binding affinity for serotonin transporter ([3H]-citalopram displacement); conditions: rat cerebral cortex, read-out: SERT Ki ± SEM
T2 construct: Rat cerebral cortex was homogenized in 30 volumes of ice-cold 50 mM Tris-HCl; from tissue; host or cells: rat cerebral cortex (membrane pellet)
Method: The experiments were performed according to the method described by Owens et al. Rat cerebral cortex was homogenized in 30 volumes of ice-cold 50 mM Tris-HCl containing 150 mM NaCl and 5 mM KCl, pH 7.7 at 25 °C and centrifuged at 20,000 × g for 20 min. The supernatant was decanted, and the pellet was resuspended in 30 volumes of buffer and centrifuged three times. The final pellet was suspended in Tris-HCl buffer at a proportion of approximately 5 mg wet weight/mL. An increasing concentration of the analyzed compounds (30 μL) was added to the incubation mixture containing 240 μL of tissue suspension and 30 μL of 1 nM [^3H]-citalopram (used for labeling 5-HT-transporter). Non-specific binding was determined in the presence 30 μL of 1 μM imipramine (displacer). Duplicate samples were incubated at room temperature for 1 h. The incubation was terminated by rapid filtration over fiberglass filters FilterMate B (Perkin Elmer, Waltham, MA, USA) using a 96-well FilterMate harvester (PerkinElmer, Waltham, MA, USA). The radioactivity of the filters was measured with a MicroBeta TriLux 1450 scintillation counter. Ki values were calculated from the Cheng–Prusoff equation [31]: (1) Ki=IC50/1+Lo/KD where Lo is the labeled ligand concentration, and KD is the dissociation constant of the labeled ligand.

[4] = tested on: PC-3 prostate cancer cells; assay: Apoptosis determination (FITC Annexin V, flow cytometry) in PC-3 cells; type: cell-based, human; conditions: 72 h, sum of early and late apoptosis
Method: Apoptosis was measured using the FITC Annexin V Apoptosis Detection Kit I (BD Biosciences, San Jose, CA, USA). Cells, after incubations 72 h with tested agents, were centrifuged, rinsed twice with cold phosphate-buffered saline (PBS) and suspended in binding buffer at 1 × 10^6 cells/mL. Then, 100-μL volumes of the cell suspensions were labeled according to the manufacturer’s instructions. Flow cytometry analysis was performed within 1 h after labeling. Flow cytometry analyses was run on a FACSCanto II flow cytometer (BD Biosciences, San Jose CA, USA) and analyzed using BD FACSDiva software.

[5] = design: method as in PMID 23574807; conditions: Porsolt forced swim test; cited from earlier work

T2 sequence (P31652 whole entry): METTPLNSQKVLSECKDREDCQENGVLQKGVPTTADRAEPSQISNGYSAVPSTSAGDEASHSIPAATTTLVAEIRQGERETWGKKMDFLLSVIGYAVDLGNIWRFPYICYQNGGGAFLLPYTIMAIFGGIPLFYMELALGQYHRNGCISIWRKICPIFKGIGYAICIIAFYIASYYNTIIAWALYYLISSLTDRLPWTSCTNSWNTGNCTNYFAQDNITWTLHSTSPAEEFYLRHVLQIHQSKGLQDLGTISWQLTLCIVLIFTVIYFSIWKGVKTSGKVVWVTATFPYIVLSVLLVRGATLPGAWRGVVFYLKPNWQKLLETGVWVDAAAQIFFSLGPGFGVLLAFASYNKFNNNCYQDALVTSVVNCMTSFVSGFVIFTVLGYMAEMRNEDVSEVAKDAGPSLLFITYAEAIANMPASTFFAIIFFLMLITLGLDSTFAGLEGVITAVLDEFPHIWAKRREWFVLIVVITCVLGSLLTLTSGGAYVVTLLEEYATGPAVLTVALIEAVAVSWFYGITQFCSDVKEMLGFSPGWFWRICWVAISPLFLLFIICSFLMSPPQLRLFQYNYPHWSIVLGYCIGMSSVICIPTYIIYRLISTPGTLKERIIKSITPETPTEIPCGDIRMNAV

Compound | EC50 (5-HT1A receptor [1]) | IC50 (5-HT1A receptor [2]) | Ki [3] | IC50 (5-HT1A receptor [1]) | melting point | IC50 (Balb/c 3T3 cells) | IC50 (PC-3 cells) | Selectivity Index (PC-3 cells) | IC50 (SH-SY5Y cells) | Selectivity Index (SH-SY5Y cells) | apoptosis ([4]; 25 μM) | apoptosis ([4]; 50 μM) | apoptosis ([4]; 75 μM) | antidepressant activity [5] | Selectivity Index (PC-3 cells; listed as KW117 (6))
CC(=O)N1CCC(c2ccc(F)cc2)C(COc2ccc3c(c2)OCO3)C1 (stereo not drawn) [N-Ac-Paroxetine, reference compound] | 4.23 µM | 1 µM |  |  |  | 66.2 ± 2.35 µM | 45.3 ± 1.44 µM | 1.46 | 65.6 ± 1.01 µM | 1.01 |  |  |  |  | 
COCCCC/C(=N\OCCN)c1ccc(C(F)(F)F)cc1 [Fluvoxamine, fluvoxamine, reference compound] |  |  |  |  |  | 52 ± 5.4 µM | 47.8 ± 2.85 µM |  | 89.4 ± 3.64 µM |  |  |  |  |  | 
Cl.O=[N+]([O-])c1ccc2nc(N3CCN(Cc4ccc(F)cc4)CC3)ccc2c1 [AB5A, 2-[4-(4-fluorobenzyl)piperazin-1-yl]-6-nitroquinoline hydrochloride] |  | 96.9 µM | 0.0074 ± 0.0024 µM | 17.9 µM |  | 38.9 ± 4.08 µM | 27.2 ± 3.2 µM | 1.43 | 18.1 ± 1.68 µM | 2.15 |  |  |  |  | 
Fc1ccc([C@@H]2CCNC[C@H]2COc2ccc3c(c2)OCO3)cc1 [Paroxetine, paroxetine, reference compound] | 0.15 µM | 0.0511 µM |  |  |  | 14.9 ± 0.24 µM | 12.1 ± 0.37 µM | 1.23 | 18.1 ± 0.48 µM | 0.82 |  |  |  |  | 
COCCCC/C(=N\OCCNC(C)=O)c1ccc(C(F)(F)F)cc1 [N-Ac-Fluvoxamine, reference compound] |  | 20.1 µM |  | 11.2 µM |  | 136 ± 3.95 µM | 92.2 ± 9.65 µM |  | 112 ± 3.85 µM | 1.21 |  |  |  |  | 
CNCCC(Oc1ccc(C(F)(F)F)cc1)c1ccccc1 (stereo not drawn) [Fluoxetine, fluoxetine, reference compound] |  |  |  |  |  |  |  |  |  |  | 21% | 60% | 80% |  | 
COc1ccccc1N1CCN(CCN(C(=O)C2CCCCC2)c2ccccn2)CC1 [WAY100635, N-[2-[4-(2-Methoxyphenyl)-1-piperazinyl]ethyl]-N-2-pyridinylcyclohexanecarboxamide maleate, reference compound] |  |  |  |  |  | 88 ± 13.5 µM | 43.3 ± 4.05 µM |  | 74.3 ± 11.8 µM |  |  |  |  |  | 

Further lines, with some results ahead:

EC50 (5-HT1A receptor [1]) | IC50 (5-HT1A receptor [2]) | Ki [3] | IC50 (5-HT1A receptor [1]) | melting point | Compound | IC50 (Balb/c 3T3 cells) | IC50 (PC-3 cells) | Selectivity Index (PC-3 cells) | IC50 (SH-SY5Y cells) | Selectivity Index (SH-SY5Y cells) | apoptosis ([4]; 25 μM) | apoptosis ([4]; 50 μM) | apoptosis ([4]; 75 μM) | antidepressant activity [5] | Selectivity Index (PC-3 cells; listed as KW117 (6))
 | 0.73 µM |  | 0.9 µM |  | CCCCCCCCCCCN1CCN(c2ccc3cc([N+](=O)[O-])ccc3n2)CC1.Cl [AZ07, 6-nitro-2-(4-undecylpiperazin-1-yl)quinoline hydrochloride] | 11.5 ± 0.62 µM | 5.74 ± 1.02 µM | 2.00 | 9.15 ± 0.74 µM | 1.26 | 20% | 35% | 44% | moderate antidepressant activity | 
 |  |  | 7.18 µM |  | CCCCCCCCN1CCN(c2ccc3cc([N+](=O)[O-])ccc3n2)CC1.Cl [KW117, 6-nitro-2-(4-octylpiperazin-1-yl)quinoline hydrochloride] | 38.1 ± 6.54 µM | 14.4 ± 1.7 µM |  | 25.4 ± 2.66 µM | 1.50 |  |  |  | moderate antidepressant activity | 2.65
 | 0.002 µM | 0.0149 ± 0.0016 µM | 0.78 µM | 107 to 108 °C | Cl.O=[N+]([O-])c1ccc2nc(N3CCN(CC4CCCCC4)CC3)ccc2c1 [AB21, 2-[4-(cyclohexylmethyl)piperazin-1-yl]-6-nitroquinoline hydrochloride] | 20.5 ± 3.5 µM | 18 ± 1.88 µM | 1.14 | 21.6 ± 1.07 µM | 0.95 |  |  |  |  | 
 | 9.7 µM |  | 1.28 µM |  | CCCCCCCCCN1CCN(c2ccc3cc([N+](=O)[O-])ccc3n2)CC1 [AZ05, 6-nitro-2-(4-nonylpiperazin-1-yl)quinolone hydrochloride] | 24.4 ± 1.49 µM | 9.85 ± 0.79 µM | 2.48 | 17.3 ± 1.85 µM | 1.41 |  |  |  | moderate antidepressant activity | 
